According to patent publication US20200297798A1, “KEY AMINO ACID SITES […] EXPORT OF NUC[…] INFLUENZA A AND B VIRUSES AND USE THEREOF AS ANTI-INFLUENZA VIRUS DRUG TARGETS” (INSTITUTE OF MICROBIOLOGY, CHINESE ACADEMY OF SCIENCES, priority 2017, published 2020):
Several values for one entry are separate records, joined by “and”; a condition that tells them apart may be missing. Identical values can stand only once. Like-named read-outs stand apart in the source and are kept apart here.

How the values were obtained:
[1] = tested on: influenza A virus WSN A/WSN/1933 (H1N1); set-up: species or system BALB/c mice; conditions: mouse, in vivo
influenza B virus Lee40 [2] = tested on: influenza B virus Lee40; set-up: species or system BALB/c mice; conditions: mouse, in vivo
[3] = target: influenza A virus nucleoprotein (ANP) (Influenza A virus, UniProt P15682); conditions: ITC; protein ANP
Chain of influenza A virus nucleoprotein (ANP) (P15682 whole entry): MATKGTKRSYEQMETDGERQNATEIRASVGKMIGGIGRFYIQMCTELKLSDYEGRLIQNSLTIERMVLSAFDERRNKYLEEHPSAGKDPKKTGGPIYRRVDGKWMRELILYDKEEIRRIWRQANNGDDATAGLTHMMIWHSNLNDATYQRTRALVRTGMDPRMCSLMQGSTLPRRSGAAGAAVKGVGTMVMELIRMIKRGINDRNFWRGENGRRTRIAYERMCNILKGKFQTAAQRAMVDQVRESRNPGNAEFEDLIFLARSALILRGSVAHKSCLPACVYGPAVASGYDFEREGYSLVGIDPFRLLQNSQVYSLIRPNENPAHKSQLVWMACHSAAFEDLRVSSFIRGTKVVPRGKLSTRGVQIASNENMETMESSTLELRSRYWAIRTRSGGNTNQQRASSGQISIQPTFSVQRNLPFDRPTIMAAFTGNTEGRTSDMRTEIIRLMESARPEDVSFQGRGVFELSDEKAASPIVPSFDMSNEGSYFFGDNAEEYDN

[4] = target: influenza B virus nucleoprotein (BNP) (Influenza B virus, UniProt P04665); conditions: ITC; protein BNP
Chain of influenza B virus nucleoprotein (BNP) (P04665 whole entry): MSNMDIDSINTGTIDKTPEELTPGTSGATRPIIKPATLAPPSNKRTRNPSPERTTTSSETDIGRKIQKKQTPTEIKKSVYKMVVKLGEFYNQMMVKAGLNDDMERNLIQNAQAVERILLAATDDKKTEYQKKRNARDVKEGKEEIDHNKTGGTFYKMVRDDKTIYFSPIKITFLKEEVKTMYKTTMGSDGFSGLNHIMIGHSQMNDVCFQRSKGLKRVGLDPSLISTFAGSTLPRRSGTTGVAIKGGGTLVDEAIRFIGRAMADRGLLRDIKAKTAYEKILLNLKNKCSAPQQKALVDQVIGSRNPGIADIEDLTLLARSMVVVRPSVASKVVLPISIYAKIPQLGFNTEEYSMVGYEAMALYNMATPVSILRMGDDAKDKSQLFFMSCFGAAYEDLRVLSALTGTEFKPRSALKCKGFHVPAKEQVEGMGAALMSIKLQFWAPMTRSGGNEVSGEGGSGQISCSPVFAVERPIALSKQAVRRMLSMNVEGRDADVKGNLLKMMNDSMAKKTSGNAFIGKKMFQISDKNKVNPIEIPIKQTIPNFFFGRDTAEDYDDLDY

[5] = tested on: influenza A virus WSN A/WSN/1933 (H1N1); conditions: A549 cells, MOI=0.1, 12 ng naproxen per dish, FIG. 8A
influenza B virus Lee40 [6] = conditions: A549 cells, MOI=1, 12 ng naproxen per dish, FIG. 8B
binding of ANP to CRM1 = binding of ANP to CRM1 (Influenza A virus, UniProt P15682)
Chain of binding of ANP to CRM1 (P15682 whole entry): as the sequence (P15682 whole entry) above

binding of BNP to CRM1 = binding of BNP to CRM1 (Influenza B virus, UniProt P04665)
Chain of binding of BNP to CRM1 (P04665 whole entry): as the sequence (P04665 whole entry) above

SMILES	body weight course after infection [1]	lung injuries (macroscopical lesions) [1]	viral load of the lung, treatment effect [1]	body weight course after infection (influenza B virus Lee40 [2])	lung injuries (macroscopical lesions) (influenza B virus Lee40 [2])	viral load of the lung, treatment effect (influenza B virus Lee40 [2])	survival rate (influenza B virus Lee40 [2]; ip)	n (stoichiometry) [3]	ΔH [3]	ΔS [3]	n (stoichiometry) [4]	ΔH [4]	ΔS [4]	virus titer versus untreated cells [5]	virus titer versus untreated cells (influenza B virus Lee40 [6])	binding of ANP to CRM1 (binding of ANP to CRM1)	binding of BNP to CRM1 (binding of BNP to CRM1)	lung index (lung mass/body weight) [1]	survival rate [1]	survival rate (influenza B virus Lee40 [2])
COc1ccc2cc(C(C)C(=O)O)ccc2c1 (stereo not drawn) [naproxen, (+) α-methyl-6-methoxy-2-naphthaleneacetic acid]	slowly recovered	lung injuries were milder	better	slowly recovered	lung injuries were milder	better	75% and 100%	1.23	-1.33 kcal/mol	64.76 J/mol · K	0.93	-0.325 kcal/mol	138.40 J/mol · K	significant decrease in virus titer	significant decrease in virus titer	did not bind to CRM1	did not bind to CRM1	–	–	–
CCOC(=O)C1=C[C@@H](OC(CC)CC)[C@H](NC(C)=O)[C@@H](N)C1 [oseltamivir]	slowly recovered	lung injuries were milder	better	slowly recovered	–	–	–	–	–	–	–	–	–	–	–	–	–	lung indexes were lower	100%	37.5%
